# ChEMBL document CHEMBL1154797, “Synthesis, anti-bacterial and anti-fungal activities of some novel Schiff bases containing 2,4-disubstituted thiazole ring” (2010)
# Tests used:
# Candida albicans [1] = format: functional
# Description: Antifungal activity against Candida albicans at MIC after 72 hrs by disk diffusion assay
# Aspergillus flavus [2] = test: Antifungal activity against Aspergillus flavus; format: functional
# Cryptococcus neoformans [3] = test: Antifungal activity against Cryptococcus neoformans; format: functional
# Aspergillus flavus [4] = format: functional
# Description: Antifungal activity against Aspergillus flavus at MIC after 72 hrs by disk diffusion assay
# Candida albicans [5] = test: Antifungal activity against Candida albicans; format: functional
# Cryptococcus neoformans [6] = format: functional
# Description: Antifungal activity against Cryptococcus neoformans at MIC after 72 hrs by disk diffusion assay
# Pseudomonas aeruginosa [7] = test: Antibacterial activity against Pseudomonas aeruginosa at MIC after 24 hrs by disk diffusion assay; format: functional
# Pseudomonas aeruginosa [8] = test: Antibacterial activity against Pseudomonas aeruginosa; format: functional
# Candida tropicalis [9] = test: Antifungal activity against Candida tropicalis; format: functional
# Candida tropicalis [10] = format: functional
# Description: Antifungal activity against Candida tropicalis at MIC after 72 hrs by disk diffusion assay
# Staphylococcus aureus [11] = test: Antibacterial activity against Staphylococcus aureus at MIC after 24 hrs by disk diffusion assay; format: functional
# Vibrio cholerae [12] = test: Antibacterial activity against Vibrio cholerae at MIC after 24 hrs by disk diffusion assay; format: functional
# Staphylococcus aureus [13] = test: Antibacterial activity against Staphylococcus aureus; format: functional
# Vibrio cholerae [14] = test: Antibacterial activity against Vibrio cholerae; format: functional
# Klebsiella pneumoniae [15] = test: Antibacterial activity against Klebsiella pneumoniae at MIC after 24 hrs by disk diffusion assay; format: functional
# Klebsiella pneumoniae [16] = test: Antibacterial activity against Klebsiella pneumoniae; format: functional
# Salmonella enterica [17] = test: Antibacterial activity against Salmonella typhi at MIC after 24 hrs by disk diffusion assay; format: functional, Salmonella enterica subsp. enterica serovar Typhi
# Salmonella enterica [18] = test: Antibacterial activity against Salmonella typhi; format: functional, Salmonella enterica subsp. enterica serovar Typhi
SMILES,diameter of the inhibition zone (DIZ) (Candida albicans [1]) [mm],MIC (Aspergillus flavus [2]) [µg/mL],MIC (Cryptococcus neoformans [3]) [µg/mL],diameter of the inhibition zone (DIZ) (Aspergillus flavus [4]) [mm],MIC (Candida albicans [5]) [µg/mL],diameter of the inhibition zone (DIZ) (Cryptococcus neoformans [6]) [mm],other results
COc1ccc(-c2csc(N/N=C/c3ccccc3)n2)cc1,13,12.5,12.5,13,12.5,14,–
COc1ccc(-c2csc(N/N=C/c3ccc(O)cc3O)n2)cc1,–,–,–,–,–,–,diameter of the inhibition zone (DIZ) (Pseudomonas aeruginosa [7]): <10 mm; MIC (Pseudomonas aeruginosa [8]): 50 µg/mL
Brc1ccc(-c2csc(N/N=C/c3ccccc3)n2)cc1,15,12.5,12.5,16,12.5,15,MIC (Candida tropicalis [9]): 25 µg/mL; diameter of the inhibition zone (DIZ) (Candida tropicalis [10]): 14 mm
OC(/C(=N/Nc1nc(-c2ccc(Br)cc2)cs1)c1ccccc1)c1ccccc1 (stereo not given),19,6.25,6.25,17,6.25,21,diameter of the inhibition zone (DIZ) (Staphylococcus aureus [11]): 17 mm; diameter of the inhibition zone (DIZ) (Vibrio cholerae [12]): 17 mm; MIC (Staphylococcus aureus [13]): 12.5 µg/mL; MIC (Vibrio cholerae [14]): 12.5 µg/mL; MIC (Candida tropicalis [9]): 6.25 µg/mL; diameter of the inhibition zone (DIZ) (Candida tropicalis [10]): 16 mm
Brc1ccc(-c2csc(NN=C3CCCCC3)n2)cc1,17,12.5,12.5,16,12.5,16,MIC (Candida tropicalis [9]): 12.5 µg/mL; diameter of the inhibition zone (DIZ) (Candida tropicalis [10]): 14 mm
COc1ccc(/C=N/Nc2nc(-c3ccc(OC)cc3)cs2)cc1,–,–,–,–,–,–,diameter of the inhibition zone (DIZ) (Staphylococcus aureus [11]): <10 mm; MIC (Staphylococcus aureus [13]): 50 µg/mL
COc1ccc(-c2csc(N/N=C/c3cc(OC)c(OC)c(OC)c3)n2)cc1,–,–,–,–,–,–,diameter of the inhibition zone (DIZ) (Staphylococcus aureus [11]): <10 mm; MIC (Staphylococcus aureus [13]): 50 µg/mL
COc1ccc(-c2csc(N/N=C/c3ccc(OC)c(OC)c3)n2)cc1,–,–,–,–,–,–,diameter of the inhibition zone (DIZ) (Staphylococcus aureus [11]): <10 mm; MIC (Staphylococcus aureus [13]): 50 µg/mL
COc1ccc(-c2csc(N/N=C/c3ccccc3O)n2)cc1,11,–,25,–,25,12,MIC (Candida tropicalis [9]): 25 µg/mL; diameter of the inhibition zone (DIZ) (Candida tropicalis [10]): 13 mm
COc1ccc(-c2csc(N/N=C(\c3ccccc3)C(O)c3ccccc3)n2)cc1 (stereo not given),–,25,–,13,–,–,diameter of the inhibition zone (DIZ) (Vibrio cholerae [12]): 16 mm; MIC (Vibrio cholerae [14]): 25 µg/mL
Fc1ccccc1/C=N/Nc1nc(-c2ccc(Br)cc2)cs1,–,–,–,–,–,–,diameter of the inhibition zone (DIZ) (Klebsiella pneumoniae [15]): <10 mm; MIC (Klebsiella pneumoniae [16]): 50 µg/mL
Oc1ccccc1/C=N/Nc1nc(-c2ccc(Br)cc2)cs1,–,–,–,–,–,–,diameter of the inhibition zone (DIZ) (Klebsiella pneumoniae [15]): <10 mm; MIC (Klebsiella pneumoniae [16]): 50 µg/mL
Brc1ccc(-c2csc(N/N=C/c3c[nH]c4ccccc34)n2)cc1,–,–,25,–,–,13,–
Brc1ccc(-c2csc(NN=C3CCCC3)n2)cc1,16,12.5,12.5,15,12.5,14,diameter of the inhibition zone (DIZ) (Vibrio cholerae [12]): 19 mm; MIC (Vibrio cholerae [14]): 6.25 µg/mL
COc1ccc(-c2csc(NN=C3CCCC3)n2)cc1,17,12.5,12.5,18,12.5,18,–
O=C(O)c1cn(C2CC2)c2cc(N3CCNCC3)c(F)cc2c1=O [CIPROFLOXACIN],–,–,–,–,–,–,diameter of the inhibition zone (DIZ) (Staphylococcus aureus [11]): 25 mm; diameter of the inhibition zone (DIZ) (Salmonella enterica [17]): 18 mm; MIC (Salmonella enterica [18]): 6.25 µg/mL; diameter of the inhibition zone (DIZ) (Klebsiella pneumoniae [15]): 23 mm; MIC (Klebsiella pneumoniae [16]): 6.25 µg/mL
OC(Cn1cncn1)(Cn1cncn1)c1ccc(F)cc1F [FLUCONAZOLE],22,6.25,6.25,19,6.25,22,MIC (Candida tropicalis [9]): 6.25 µg/mL; diameter of the inhibition zone (DIZ) (Candida tropicalis [10]): 20 mm
